Here are results for 1 compound from patent US20100120776A1, “Carbocysteine medical foods” (Hall Bioscience Corporation, priority 2008, published 2010).

The structures appear in SMILES notation.

The nature of one series: in vivo. Particulars: beagle, dog, plasma.
Series [1] can be described thus: Buccal availability study: pharmacokinetics and bioavailability of carbocysteine in dogs (buccal vs oral vs IV). As to conditions: beagle dogs; range across buccal and oral routes; no significant differences.
Description: (§1) A study was conducted in dogs to determine the pharmacokinetics and bioavailability of a buccal formulation of carbocysteine in comparison to oral and IV routes of administration.
(§2) The study was conducted according to the following methodology. A 400 mg dissolving tablet, a 400 mg oral tablet, and a 200 mg IV dose of carbocysteine were administered to each of five beagle dogs in a randomized crossover pattern. […] The dissolving tablet was administered to the animal by placing the tablet in the mouth until it dissolved. The oral tablet was administered by forcing the animal to swallow the tablet. […] Plasma concentrations were measured by precolumn derivatization of S-carboxymethylcysteine using o-phthaldialdehyde (OPA) and subsequent HPLC analysis. All data were analyzed using WinNonlin®, a tool for pharmacokinetic and pharmacodynamic analysis. The carbocysteine plasma data was fitted to a one-compartment model with first-order elimination. The pharmacokinetic parameters (t1/2, CL, Vd) generated from each route of administration were compared using analysis of variance (ANOVA) to detect statistically significant differences. A paired t-test was used to detect the differences in Cmax, Tmax, Ka, and F between buccal and oral routes of administration.

Description for in vivo: as §1, §2

Usually Vd stands for a proportionality between amount in the body and measured concentration, not a real space. The low end stands for confinement near the circulation, the high end for extensive tissue distribution. By clearance is commonly meant the volume of plasma or blood freed of the substance per unit of time. A high value points to efficient removal. By half-life is commonly meant the time in which the quantity being followed falls by half. Low readings indicate rapid decline, high ones slow decline. By Tmax is commonly meant the time from dosing to the highest level. Regarding `N[C@@H](CSCC(=O)O)C(=O)O` [carbocysteine, S-carboxymethyl-L-cysteine], in “in vivo”, the Vd fell in the range of 0.405 to 0.418 L/kg, the clearance was in the range of 4.52 to 4.64 mL/min/kg and the half-life lay within 1.02 to 1.07 h. The Tmax in “in vivo” (400 mg) fell in the range of 1.5 to 1.55 h. Also, the Ka in series [1] is 0.028−0.034 min^−1.
